Reference: patent US20080275078A1, “Pyrazolo[3,4-B] Pyridine Compounds and Their Use as Pde4 Inhibitors” (Glaxo Group Limited, priority 2004, published 2008)

Legend:
[1] = tested on: atopic dermatitis patients; details: 0.15% cream vs vehicle and hydrocortisone 17-butyrate (0.1%) cream; cited from earlier work
[2] = tested on: dinitrofluorobenzene (DNFB)-induced delayed type hypersensitivity (DTH) response in pigs; assay: In Vivo Assay A: pig model of atopic dermatitis, skin topical administration; details: for reduction in the mean summed score: ca. 2.5% (w/v) in DMSO/acetone solution, about 2 h prior to and 6 h after DNFB challenge, vs vehicle alone
Text: The pig DTH (delayed type hypersensitivity) model of contact hypersensitivity utilizes the Th2-mediated inflammatory response in pig skin to mimic the pathology of atopic dermatitis in humans. The model measures the potential anti-inflammatory effect of compounds, topically-applied to the skin, on the acute DTH (delayed type hypersensitivity) response in castrated male Yorkshire pigs.
In general in the assay, pigs (domestic Yorkshire pigs, 15-18 kg at time of sensitization, castrated males) are first sensitized by topical application of ca. 10% (w/v) dinitrofluorobenzene (DNFB) dissolved in DMSO:acetone:olive oil (ca. 1:5:3) (ca. 40 mg DNFB, 400 microlitre solution total) to the ears (outer) and groin (inner). The pigs are then challenged 12 days later with ca. 0.6% (w/v) DNFB applied to randomized sites on the shaved back of the pigs (ca. 90 micrograms/site; sites are identified and numbered by grid made with marking pen).
On the day of challenge, the treatments are performed at the challenge sites at about 2 hours prior to and about 6 hours after challenge (for DMSO/acetone solutions/suspensions containing the PDE4 inhibitor, to maximize exposure to drug), or at about 30 minutes after and about 6 hours after challenge (for topical ointments or creams containing the PDE4 inhibitor, representing a more clinically relevant treatment protocol).
One day (about 24 hrs) after challenge, and optionally again at ca. 48 hrs post challenge, test sites are visually evaluated for intensity and extent of erythema by measuring the diameter of the reaction at its widest point and assigning scores of 0 to 4 for each of erythema intensity and erythema extent. Induration (a measure of swelling) is also scored 0 to 4. Scores for erythema intensity, erythema extent and induration are assigned according to the following criteria: Intensity of Erythema: 0=normal, 1=minimal, barely visible, 2=mild, 3=moderate, 4=severe. Extent of Erythema (not raised): 0=no edema, 1=macules of pin head size, 2=lentil sized macules, 3=confluent macules, 4=diffuse over entire site. Induration (palpable): 0=normal, 1=nodules of pin head size, 2=doughy lentil sized nodules, 3=confluent firm nodules, 4=diffuse hard lesion. The summed visual score at ca. 24 hours includes the individual scores for erythema intensity, erythema extent, and induration; so the maximal summed score for each site would be 12. High summed scores can generally indicate a high inflammatory response. Visual scores are subject to some inaccuracy/error.
Differences in the summed score between adjacent control (placebo) and treatment sites on the grids are calculated. This difference value is then used to determine the percent inhibition compared to the summed score for the control (placebo) sites. The more negative the difference value, the greater the calculated inhibition. Percent inhibition of (percent inhibition compared to) the mean summed score can be calculated.
About 24 hours after challenge, treatment sites can optionally also be visually evaluated for lesion area.
The anti-inflammatory effect of the compound 4-{[1-(aminocarbonyl)-4-piperidinyl]amino}-N-[(3,4-dimethylphenyl)methyl]-1-ethyl-1H-pyrazolo[3,4-b]pyridine-5-carboxamide (“Example 2 or 2A compound”), applied topically to the skin, on the acute DTH response in castrated male Yorkshire pigs is compared to that of another PDE4 inhibitor cipamfylline (BRL-61063) and the topical immunomodulator pimecrolimus.
In the above assay, the Example 2 or 2A compound is topically administered: either (A) at ca. 2.5% (w/v) concentration in a solution of ca. 10% DMSO/90% acetone (ca. 50 microlitres or ca. 1.5 mg/site) at about 2 hours prior to and about 6 hours after the DNFB challenge; or (B) at ca. 0.5% (w/w) concentration in an ointment containing propylene glycol (PG)* (ca. 25 mg of formulation/site) at about 30 minutes after and about 6 hours after the DNFB challenge. […]

[3] = tested on: atopic dermatitis patients; details: 0.5% ointment, twice daily topical application; cited from earlier work
COPD patients = details: cited from earlier work
Measured logD = type: physicochemical; details: octanol/water; pH=7.4, free base
[4] = Preliminary test of systemic exposure after oral administration to rat(s); type: in vivo; details: about 1 mg/kg, free base, in approx. 10% DMSO and 90% PEG200/water (70:30), preliminary tests
Text: Although the compound of formula (I) or salt thereof may be administered orally, oral administration is not presently thought to be a preferred route of administration, at least for the compound 4-{[1-(aminocarbonyl)-4-piperidinyl]amino}-N-[(3,4-dimethylphenyl)methyl]-1-ethyl-1H-pyrazolo[3,4-b]pyridine-5-carboxamide (“free base” form) (e.g. Example 2, 2A or 2B).

[5] = Preliminary aqueous solubility screen; type: physicochemical; details: pH 7.4 PBS with about 5% DMSO, about room temperature, free base
Procedure: Aqueous solubility: A preliminary screen aims to estimate roughly the aqueous solubility of compounds by (as an approximate summary): (i) creating a ca. 10 mM solution of the compound in DMSO, (ii) diluting a portion of this DMSO solution by mixing about 19 parts by volume of pH 7.4 aqueous phosphate buffered saline (PBS) buffer with 1 part by volume of the ca. 10 mM DMSO solution, (iii) “filtering” the mixture with the aid of centrifugation, and then (iv) measuring the concentration of the dissolved compound in the “filtrate”.

Nc1nc2c([nH]1)c(=O)n(CC1CC1)c(=O)n2CC1CC1 [cipamfylline, reference compound]
effectiveness in the treatment of atopic dermatitis patients [1]: significantly more effective than vehicle, but significantly less effective than hydrocortisone 17-butyrate (0.1%) cream | reduction in the summed scores ([2]; ca. 0.25% (w/w) in ointment, not statistically significant): 6-7% | reduction in the mean summed score [2]: about 8%

COc1ccc(C2CNC(=O)NC2)cc1O[C@H]1C[C@@H]2CC[C@H]1C2 [CP80,633]
inflammatory parameters in atopic dermatitis patients [3]: reductions of inflammatory parameters

COc1ccc([C@]2(C#N)CC[C@@H](C(=O)O)CC2)cc1OC1CCCC1 [cilomilast]
forced expiratory volume (FEV1) in COPD patients (COPD patients; 15 mg orally twice daily): appears to improve forced expiratory volume | antiinflammatory effects in COPD patients (COPD patients; human, in vivo): appears to have antiinflammatory effects

CCn1ncc2c(NC3CCN(C(N)=O)CC3)c(C(=O)NCc3ccc(C)c(C)c3)cnc21 [Example 2, 4-{[1-(aminocarbonyl)-4-piperidinyl]amino}-N-[(3,4-dimethylphenyl)methyl]-1-ethyl-1H-pyrazolo[3,4-b]pyridine-5-carboxamide]
logD (Measured logD): ~3.4 | melting point: 152 to 154 °C | systemic exposure after oral administration [4]: low systemic exposure | inhibition of the mean summed score (erythema intensity, erythema extent, induration) ([2]; ca. 0.5% (w/w) in PG ointment, about 30 min and 6 h after DNFB challenge, vs placebo PG ointment, ca. 24 h, p<0.05): 13-14% | reduction in the mean summed score [2]: about 21% | lesion area ([2]; skin administration in DMSO/acetone or PG ointment, results subject to some inaccuracy/error): decrease the lesion area | aqueous solubility [5]: about 60 micrograms of the compound/ml
